The results in this text go back to patent publication US20120052130A1, “GPR 119 MODULATORS” (Pfizer Inc., priority 2009, published 2012).

For experiment [1], the target named is T1, human GPR119 (Homo sapiens, UniProt Q8TDV5).
T1 sequence (Q8TDV5 1-335): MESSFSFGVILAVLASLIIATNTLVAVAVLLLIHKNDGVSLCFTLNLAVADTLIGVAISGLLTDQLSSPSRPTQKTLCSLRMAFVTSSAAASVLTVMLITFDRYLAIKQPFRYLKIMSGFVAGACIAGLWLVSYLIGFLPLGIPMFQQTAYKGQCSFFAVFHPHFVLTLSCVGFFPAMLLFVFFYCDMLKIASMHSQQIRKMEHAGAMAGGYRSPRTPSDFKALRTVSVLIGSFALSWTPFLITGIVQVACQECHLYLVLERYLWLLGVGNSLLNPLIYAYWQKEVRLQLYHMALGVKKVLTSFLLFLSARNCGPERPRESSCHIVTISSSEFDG
As to the kind of experiment: HTRF cAMP cell-based GPR119 agonist assay (hGPR119 HEK-CRE beta-lactamase cells). Further details: host or cells: hGPR119-HEK293-CRE-beta-lactamase cells. The conditions noted are these: percent of maximal activity relative to standard GPR119 agonist (WO2005121121) at 10 micromolar. On the procedure: GPR119 agonist activity was also determined with a cell-based assay utilizing an HTRF (Homogeneous Time-Resolved Fluorescence) cAMP detection kit (cAMP dynamic 2 Assay Kit; Cis Bio cat #62AM4PEC) that measures cAMP levels in the cell. The method is a competitive immunoassay between native cAMP produced by the cells and the cAMP labeled with the dye d2. The tracer binding is visualized by a Mab anti-cAMP labeled with Cryptate. The specific signal (i.e. energy transfer) is inversely proportional to the concentration of cAMP in either standard or sample.
Specifically, hGPR119HEK-CRE beta-lactamase cells (Invitrogen 2.5×10^7/mL; the same cell line used in the beta-lactamase assay described above) are removed from cryopreservation and diluted in growth medium (Dulbecco's modified Eagle medium high glucose (DMEM; Gibco Cat #11995-065), 1% charcoal dextran treated fetal bovine serum (CD serum; HyClone Cat # SH30068.03), 1×MEM Nonessential amino acids (Gibco Cat #15630-080) and 25 mM HEPES pH 7.0 (Gibco Cat #15630-080)). The cell concentration was adjusted to 1.5×10^5 cells/mL and 30 mLs of this suspension was added to a T-175 flask and incubated at 37 degrees Celsius in a humidified environment in 5% carbon dioxide. […]
Varying concentrations of each compound to be tested were diluted in assay buffer containing 3-isobutyl-1-methylxanthin (IBMX; Sigma cat #15879) and added to the assay plate wells in a volume of 2 microL (final IBMX concentration was 400 microM and final DMSO concentration was 0.58%). […] The plates were then incubated at room temperature and after 60 minutes, changes in the HTRF signal were read with an Envision 2104 multilabel plate reader using excitation of 330 nm and emissions of 615 and 665 nm. Raw data were converted to nM cAMP by interpolation from a cAMP standard curve (as described in the manufacturer's assay protocol) and EC50 determinations were made from an agonist-response curves analyzed with a curve fitting program using a 4-paramter logistic dose response equation.
(TR-FRET usually uses a lanthanide donor and a delayed reading to cut background.)

Experiment [2] concerns the target T1, human GPR119. Nature of the experiment: β-lactamase reporter functional assay for GPR119 agonists (hGPR119 HEK293-CRE beta-lactamase cells). The experiment is classed as cell-based. Further details: host or cells: hGPR119-HEK293-CRE-beta-lactamase cells; Emax: dose or concentration left out as unconfirmed. The conditions noted are these: percent of maximal activity relative to standard GPR119 agonist (WO2005121121) at 10 micromolar; read-out: Human B-lactamase Intrinsic Activity*. On the procedure:
The assay for GPR119 agonists utilizes a cell-based (hGPR119HEK293-CRE beta-lactamase) reporter construct where agonist activation of human GPR119 is coupled to beta-lactamase production via a cyclic AMP response element (CRE). GPR119 activity is then measured utilizing a FRET-enabled beta-lactamase substrate, CCF4-AM (Live Blazer FRET-B/G Loading kit, Invitrogen cat #K1027). […] Fluorescence was measured on an EnVision fluorimetric plate reader, excitation 405 nm, emission 460 nm/535 nm. EC50 determinations were made from agonist-response curves analyzed with a curve fitting program using a 4-parameter logistic dose-response equation.

Take `CC(C)OC(=O)N1CCC(Oc2cc(N3CCc4cc(S(C)(=O)=O)ccc43)ncn2)CC1` [Example 3, Isopropyl 4-({6-[5-(methylsulfonyl)-2,3-dihydro-1H-indol-1-yl]pyrimidin-4-yl}oxy)piperidine-1-carboxylate]: in experiment [1], the “Human cAMP Intrinsic Activity*” value is recorded as 107%.
Turning to `CC(C)OC(=O)N1C[C@H]2COC[C@@H](C1)[C@@H]2Oc1cc(N2CCc3cc(S(C)(=O)=O)ccc32)ncn1` [Example 2, Isopropyl 9-syn-({6-[5-(methylsulfonyl)-2,3-dihydro-1H-indol-1-yl]pyrimidin-4-yl}oxy)-3-oxa-7-azabicyclo[3.3.1]nonane-7-carboxylate], in experiment [2], the Emax was found to be 109%.
